Results: patent US20240262793A1, “QUINAZOLINE COMPOUND, AND PREPARATION METHOD THEREFOR AND APPLICATION THEREOF” (SHANGHAI PHARMACEUTICALS HOLDING CO., LTD., priority 2021, published 2024)
pIC50: −log10 of the molar value.

Columns and labels:
Format in all cases: cell-based
Conditions in all cases: Homo sapiens, LPS 100 ng/mL
TNF-α = assay: Inhibition of TNF-α in PMA-differentiated, LPS-stimulated THP-1 cells (ELISA of cell supernatant)
Description: (§1) (1) Cell culture and inoculation: A stock solution of PMA at 1 mg/mL was diluted with serum-free RP1640 medium to prepare a 100 ng/mL PMA solution. Normal cultured THP-1 cells were centrifuged, resuspended in a complete medium (RP1640 medium containing 10% FBS), and counted. The cell density was adjusted to 2×10^6 cells/mL. An equal volume of 100 ng/mL PMA solution was then added, resulting in a cell density of 1×10^6 cells/mL and a final PMA concentration of 50 ng/mL. 100 μL of the cell suspension was seeded into each well of a 96-well cell culture plate with 1×10^5 cells per well. The 96-well cell culture plate was then incubated at 37° C. in a 5% CO2 atmosphere for 24 hours.
(§2) (2) Drug treatment of cells: On the second day, LPS was added to the complete medium to adjust the final concentration to 100 ng/mL, and the compound was prepared using this LPS-containing medium. The compound was added to the appropriate cell wells according to the prepared concentration gradient. The positive control group (LPS+) was a culture medium solution containing a final concentration of 100 ng/mL LPS and 0.1% DMSO without drugs, while the negative control group (LPS-) was a culture medium solution containing 0.1% DMSO without LPS. The volume in each well was 100 μL.
(§3) (3) Test sample collection: The mixture was centrifuged at 1000 rpm for 5 minutes and the cell supernatant and cell precipitate were collected separately. The cell supernatant was used to detect TNF-α and IL-6, and the cell precipitate was collected for IL-1β detection. After collecting the cell supernatant, the remaining liquid in the wells was discarded and 100 μL of cell lysis solution (20 mM Tris 8.0; 2 mM EDTA; 0.5% Triton X-100) was added to each well for complete lysis.
(§4) (4) Sample detection: The enzyme-linked immunosorbent assay (ELISA) was used to detect the content of each cytokine. The specific steps were performed according to the instructions provided in the corresponding kit manuals. The catalog numbers of kits are as follows: • Human TNF-alpha Quantikine ELISA Kit, Catalog # STA00D • Human IL-1 beta/IL-1F2 Quantikine ELISA Kit, Catalog # SLB50 • Human IL-6 Quantikine ELISA Kit, Catalog # S6050.
(§5) (5) Data analysis: The in vitro inhibitory activity of the compounds was calculated using the following formula: […]

IL-1β = assay: Inhibition of IL-1β in PMA-differentiated, LPS-stimulated THP-1 cells (ELISA of cell lysate)
Description: as §1, §2, §3, §4, §5

IL-6 = assay: Inhibition of IL-6 in PMA-differentiated, LPS-stimulated THP-1 cells (ELISA of cell supernatant)
Description: as §1, §2, §3, §4, §5

SMILES | pIC50 (TNF-α; THP-1, Table 8, PMA 50 ng/mL) | pIC50 (IL-1β; THP-1, Table 8, PMA 50 ng/mL) | pIC50 (IL-6; THP-1, Table 8, PMA 50 ng/mL) | pIC50 (TNF-α; THP-1, Table 7, PMA 50 ng/mL) | pIC50 (IL-1β; THP-1, Table 7, PMA 50 ng/mL) | pIC50 (IL-6; THP-1, Table 7, PMA 50 ng/mL)
O=C1CNC(=O)N1CCCCNc1ncnc2cc(Cl)ccc12 [Example 63, 3-(4-((7-Chloroquinazolin-4-yl)amino)butyl)imidazoline-2,4-dione] | 4.10 | 4.64 | 4.84 | – | – | –
O=C1NC2(CCC2)C(=O)N1CCCCNc1ncnc2cc(Cl)ccc12 [Example 64, 7-(4-((7-Chloroquinazolin-4-yl)amino)butyl)-5,7-diazaspiro[3.4]octane-6,8-dione] | 4.46 | 4.19 | 6.47 | – | – | –
O=C1NC2(CCCC2)C(=O)N1CCCCCNc1ncnc2cc(Cl)ccc12 [Example 66, 3-(5-((7-Chloroquinazolin-4-yl)amino)pentyl)-1,3-diazaspiro[4.4]nonane-2,4-dione] | 5.47 | 4.43 | 6.52 | – | – | –
O=C1CNC(=O)N1CCCCCNc1ncnc2cc(Cl)ccc12 [Example 67, 3-(5-((7-Chloroquinazolin-4-yl)amino)pentyl)imidazoline-2,4-dione] | 4.19 | 3.98 | 5.34 | – | – | –
CC1(C)NC(=O)N(CCCCCNc2ncnc3cc(Cl)ccc23)C1=O [Example 69, 3-(5-((7-Chloroquinazolin-4-yl)amino)pentyl)-5,5-dimethylimidazoline-2,4-dione] | 4.93 | 4.86 | 6.24 | – | – | –
CC(CCCN1C(=O)NC2(CCC2)C1=O)Nc1ncnc2cc(Cl)ccc12 (stereo not drawn) [Example 71, 7-(4-((7-Chloroquinazolin-4-yl)amino)pentyl)-5,7-diazaspiro[3.4]octane-6,8-dione] | 4.90 | 4.79 | 6.19 | – | – | –
CC(CCCN1C(=O)NC2(CCCC2)C1=O)Nc1ncnc2cc(Cl)ccc12 (stereo not drawn) [Example 72, 3-(4-((7-Chloroquinazolin-4-yl)amino)pentyl)-1,3-diazaspiro[4.4]nonane-2,4-dione] | 5.12 | 4.89 | 6.64 | – | – | –
CC(CCCN1C(=O)NC2(CC2)C1=O)Nc1ncnc2cc(Cl)ccc12 (stereo not drawn) [Example 73, 6-(4-((7-Chloroquinazolin-4-yl)amino)pentyl)-4,6-diazaspiro[2.4]heptane-5,7-dione] | 4.47 | 4.42 | 5.82 | – | – | –
C[C@@H](CCCN1C(=O)CNC1=O)Nc1ncnc2cc(Cl)ccc12 [Example 75, (S)-3-(4-((7-Chloroquinazolin-4-yl)amino)pentyl)imidazolidine-2,4-dione] | 4.34 | 4.27 | 5.37 | – | – | –
C[C@H](CCCN1C(=O)NC2(CC2)C1=O)Nc1ncnc2cc(Cl)ccc12 [Example 76, (R)-6-(4-((7-Chloroquinazolin-4-yl)amino)pentyl)-4,6-diazaspiro[2.4]heptane-5,7-dione] | 4.02 | 3.96 | 4.70 | – | – | –
C[C@@H](CCCN1C(=O)NC2(CC2)C1=O)Nc1ncnc2cc(Cl)ccc12 [Example 77, (S)-6-(4-((7-Chloroquinazolin-4-yl)amino)pentyl)-4,6-diazaspiro[2.4]heptane-5,7-dione] | 4.64 | 4.58 | 5.86 | – | – | –
CCN(CCO)CCCC(C)Nc1ccnc2cc(Cl)ccc12 (stereo not drawn) [HCQ, Hydroxychloroquine, reference compound] | 4.04 | 3.78 | 3.91 | 4.16 | 4.21 | 4.49
